Results reported in patent publication US20090264384A1, “INDOLE, BENZIMIDAZOLE, AND BENZOLACTAM BORONIC ACID COMPOUNDS, ANALOGS THEREOF AND METHODS OF USE THEREOF” (Nuada, Inc., priority 2004, published 2009).

Columns and labels:
K^+ATP channel = target: T1, K^+ATP channel (Rattus norvegicus, UniProt Q09429); experiment: K^+ATP channel binding assay; details: 1.0E−05 M; read-out: % Inhibition of Control Specific Binding
T1 construct: rat cerebral; from tissue; host or cells: rat cerebral cortex

Choline transporter = target: T2, Choline transporter (Rattus norvegicus, UniProt Q9JMD7); experiment: Choline transporter binding assay; details: 1.0E−05 M; read-out: % Inhibition of Control Specific Binding
T2 construct: rat striatum; from tissue; host or cells: rat striatum
T2 sequence (Q9JMD7 1-580): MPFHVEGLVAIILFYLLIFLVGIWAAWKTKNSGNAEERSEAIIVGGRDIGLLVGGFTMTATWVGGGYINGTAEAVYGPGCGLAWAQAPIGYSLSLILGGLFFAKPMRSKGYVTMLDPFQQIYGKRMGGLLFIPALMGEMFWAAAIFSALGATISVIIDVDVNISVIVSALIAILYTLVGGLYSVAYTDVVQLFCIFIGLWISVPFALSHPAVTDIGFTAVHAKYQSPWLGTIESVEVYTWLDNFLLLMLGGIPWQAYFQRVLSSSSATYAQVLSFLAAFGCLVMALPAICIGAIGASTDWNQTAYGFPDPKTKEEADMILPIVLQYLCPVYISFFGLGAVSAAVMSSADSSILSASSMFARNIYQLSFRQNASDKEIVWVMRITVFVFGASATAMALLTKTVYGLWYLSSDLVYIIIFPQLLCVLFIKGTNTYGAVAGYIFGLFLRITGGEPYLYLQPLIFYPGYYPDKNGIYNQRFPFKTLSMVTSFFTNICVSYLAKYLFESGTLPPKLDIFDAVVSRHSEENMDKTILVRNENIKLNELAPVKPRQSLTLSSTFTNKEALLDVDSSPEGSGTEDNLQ

AT2(h) = target: T3, AT2(h) (Homo sapiens, UniProt P50052); experiment: AT2(h) binding assay; details: read-out: % Inhibition of Control Specific Binding
T3 construct: expressed in transfected cells; host or cells: Hela cells

Phosphodiesterase 3(h) = Phosphodiesterase 3(h) (Homo sapiens, UniProt Q14432); experiment: Phosphodiesterase 3(h) enzyme assay; type: biochemical; details: 1.0E−05 M
Sequence of Phosphodiesterase 3(h) (Q14432 674-1093 limits assumed): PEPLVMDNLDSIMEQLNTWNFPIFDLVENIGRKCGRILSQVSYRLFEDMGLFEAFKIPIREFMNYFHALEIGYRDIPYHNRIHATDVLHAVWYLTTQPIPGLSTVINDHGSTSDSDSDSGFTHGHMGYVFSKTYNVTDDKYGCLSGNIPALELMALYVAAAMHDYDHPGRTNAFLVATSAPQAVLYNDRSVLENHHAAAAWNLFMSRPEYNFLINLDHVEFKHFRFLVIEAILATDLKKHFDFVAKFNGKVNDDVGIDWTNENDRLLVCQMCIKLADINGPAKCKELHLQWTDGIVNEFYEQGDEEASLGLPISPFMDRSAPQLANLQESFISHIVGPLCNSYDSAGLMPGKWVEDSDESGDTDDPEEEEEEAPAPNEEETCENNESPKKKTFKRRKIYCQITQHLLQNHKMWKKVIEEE

hERG = hERG (Homo sapiens, UniProt Q12809); experiment: ADME-Tox: QT Prolongation, HERG (patch-clamp); details: human, HEK-293 cells stably expressing HERG
Sequence of hERG (Q12809 whole entry): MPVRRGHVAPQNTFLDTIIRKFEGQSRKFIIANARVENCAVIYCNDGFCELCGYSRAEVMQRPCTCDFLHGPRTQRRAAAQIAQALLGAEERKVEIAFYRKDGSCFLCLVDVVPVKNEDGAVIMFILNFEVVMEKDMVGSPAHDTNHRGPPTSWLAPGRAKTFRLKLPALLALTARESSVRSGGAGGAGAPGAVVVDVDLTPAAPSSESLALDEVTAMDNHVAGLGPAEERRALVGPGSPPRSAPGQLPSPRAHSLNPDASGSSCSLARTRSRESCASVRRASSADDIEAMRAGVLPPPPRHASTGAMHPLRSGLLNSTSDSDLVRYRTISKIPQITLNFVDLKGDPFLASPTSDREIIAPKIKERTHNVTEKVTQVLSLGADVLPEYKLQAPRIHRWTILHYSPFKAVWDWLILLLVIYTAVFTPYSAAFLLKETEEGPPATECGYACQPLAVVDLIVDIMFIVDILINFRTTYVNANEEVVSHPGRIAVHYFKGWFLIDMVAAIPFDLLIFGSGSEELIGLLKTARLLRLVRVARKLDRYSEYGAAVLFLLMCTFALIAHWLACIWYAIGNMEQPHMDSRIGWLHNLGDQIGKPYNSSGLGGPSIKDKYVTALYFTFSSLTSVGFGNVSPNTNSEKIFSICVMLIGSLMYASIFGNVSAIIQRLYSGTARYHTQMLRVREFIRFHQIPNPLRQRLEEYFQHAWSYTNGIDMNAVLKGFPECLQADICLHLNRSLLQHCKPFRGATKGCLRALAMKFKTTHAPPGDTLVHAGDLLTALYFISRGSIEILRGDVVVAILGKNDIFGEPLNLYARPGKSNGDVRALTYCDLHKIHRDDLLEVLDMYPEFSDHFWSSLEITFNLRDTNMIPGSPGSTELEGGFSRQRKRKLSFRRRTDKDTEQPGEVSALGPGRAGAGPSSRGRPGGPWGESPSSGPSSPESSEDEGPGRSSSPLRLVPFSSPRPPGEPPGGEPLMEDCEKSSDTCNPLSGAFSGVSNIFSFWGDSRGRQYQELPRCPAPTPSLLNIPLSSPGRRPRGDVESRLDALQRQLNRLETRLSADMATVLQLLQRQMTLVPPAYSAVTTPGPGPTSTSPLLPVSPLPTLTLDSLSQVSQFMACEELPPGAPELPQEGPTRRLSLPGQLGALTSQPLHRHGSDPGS

HERG channel = HERG channel (Homo sapiens, UniProt Q12809); experiment: ADME-Tox: QT Prolongation, HERG (patch-clamp)
Sequence of HERG channel (Q12809 whole entry): as above

V1a(h) = target: T4, V1a(h) (Homo sapiens, UniProt P37288); experiment: V1a(h) binding assay; details: 1.0E−05 M; read-out: % Inhibition of Control Specific Binding
T4 construct: expressed in transfected cells; host or cells: CHO cells

Phosphodiesterase 4(h) = Phosphodiesterase 4(h) enzyme assay; type: biochemical, human; details: 1.0E−05 M
[1] = tested on: Catechol-O-methyl transferase; experiment: Catechol-O-methyl transferase enzyme assay; type: biochemical, porcine; details: 1.0E−05 M
β1(h) = target: T5, β1(h) (Homo sapiens, UniProt P08588); experiment: β1(h) binding assay; details: read-out: % Inhibition of Control Specific Binding
T5 construct: expressed in transfected cells; host or cells: HEK-293 cells
T5 sequence (P08588 whole entry): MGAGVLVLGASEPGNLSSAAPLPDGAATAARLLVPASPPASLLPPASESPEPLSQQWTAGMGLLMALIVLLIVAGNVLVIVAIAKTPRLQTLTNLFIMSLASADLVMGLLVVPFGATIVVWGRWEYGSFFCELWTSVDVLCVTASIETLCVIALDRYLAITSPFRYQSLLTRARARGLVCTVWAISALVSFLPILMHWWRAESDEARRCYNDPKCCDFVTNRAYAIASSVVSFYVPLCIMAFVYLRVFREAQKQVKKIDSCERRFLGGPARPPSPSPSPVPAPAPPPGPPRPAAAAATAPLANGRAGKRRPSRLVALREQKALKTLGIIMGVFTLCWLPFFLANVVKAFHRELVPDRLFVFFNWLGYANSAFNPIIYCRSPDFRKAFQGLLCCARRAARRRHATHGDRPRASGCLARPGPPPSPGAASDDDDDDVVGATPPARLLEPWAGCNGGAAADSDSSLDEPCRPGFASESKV

I1 (peripheral) = I1 (peripheral) binding assay; design: species or system bovine; details: 1.0E−05 M
ORL1(h) (NOP) = target: T6, ORL1(h) (NOP) (Homo sapiens, UniProt P41146); experiment: ORL1(h) (NOP) binding assay; details: 1.0E−05 M; read-out: % Inhibition of Control Specific Binding
T6 construct: expressed in transfected cells; host or cells: HEK-293 cells

Adenylyl cyclase (basal) = Adenylyl cyclase (basal) enzyme assay; type: biochemical, rat; details: 1.0E−05 M
DA transporter(h) = target: T7, DA transporter(h) (Homo sapiens, UniProt Q01959); experiment: DA transporter(h) binding assay; details: 1.0E−05 M; read-out: % Inhibition of Control Specific Binding
T7 construct: expressed in transfected cells; host or cells: CHO cells
T7 sequence (Q01959 whole entry): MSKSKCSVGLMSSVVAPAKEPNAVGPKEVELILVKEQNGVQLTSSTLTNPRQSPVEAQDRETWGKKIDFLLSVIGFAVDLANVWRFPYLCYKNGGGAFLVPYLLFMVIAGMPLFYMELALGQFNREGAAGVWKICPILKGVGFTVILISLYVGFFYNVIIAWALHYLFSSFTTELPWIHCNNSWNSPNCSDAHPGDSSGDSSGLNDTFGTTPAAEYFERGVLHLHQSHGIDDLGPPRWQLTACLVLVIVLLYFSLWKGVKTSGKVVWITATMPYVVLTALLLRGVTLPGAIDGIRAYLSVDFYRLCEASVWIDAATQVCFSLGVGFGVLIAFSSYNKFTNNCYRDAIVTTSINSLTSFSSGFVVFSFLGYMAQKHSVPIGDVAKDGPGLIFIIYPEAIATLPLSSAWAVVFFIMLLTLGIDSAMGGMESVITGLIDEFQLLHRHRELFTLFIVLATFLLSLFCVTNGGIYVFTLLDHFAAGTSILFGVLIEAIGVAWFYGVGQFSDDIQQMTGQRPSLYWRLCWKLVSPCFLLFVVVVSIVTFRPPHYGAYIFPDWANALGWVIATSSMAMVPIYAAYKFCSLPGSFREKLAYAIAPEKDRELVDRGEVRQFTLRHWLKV

B1(h) = target: T8, B1(h) (Homo sapiens, UniProt P46663); experiment: B1(h) binding assay; details: 1.0E−05 M; read-out: % Inhibition of Control Specific Binding
T8 construct: expressed in transfected cells; host or cells: CHO cells
T8 sequence (P46663 whole entry): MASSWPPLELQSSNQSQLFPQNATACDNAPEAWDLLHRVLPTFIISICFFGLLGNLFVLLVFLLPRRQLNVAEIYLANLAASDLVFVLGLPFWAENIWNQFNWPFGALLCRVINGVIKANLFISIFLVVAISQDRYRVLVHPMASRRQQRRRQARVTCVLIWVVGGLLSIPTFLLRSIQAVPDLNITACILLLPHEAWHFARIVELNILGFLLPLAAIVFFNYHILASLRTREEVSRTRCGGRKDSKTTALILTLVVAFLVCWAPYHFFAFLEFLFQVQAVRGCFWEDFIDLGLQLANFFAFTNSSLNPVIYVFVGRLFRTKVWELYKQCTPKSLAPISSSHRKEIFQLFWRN

ETB(h) = target: T9, ETB(h) (Homo sapiens, UniProt P24530); experiment: ETB(h) binding assay; details: read-out: % Inhibition of Control Specific Binding
T9 construct: expressed in transfected cells; host or cells: CHO cells
T9 sequence (P24530 27-442): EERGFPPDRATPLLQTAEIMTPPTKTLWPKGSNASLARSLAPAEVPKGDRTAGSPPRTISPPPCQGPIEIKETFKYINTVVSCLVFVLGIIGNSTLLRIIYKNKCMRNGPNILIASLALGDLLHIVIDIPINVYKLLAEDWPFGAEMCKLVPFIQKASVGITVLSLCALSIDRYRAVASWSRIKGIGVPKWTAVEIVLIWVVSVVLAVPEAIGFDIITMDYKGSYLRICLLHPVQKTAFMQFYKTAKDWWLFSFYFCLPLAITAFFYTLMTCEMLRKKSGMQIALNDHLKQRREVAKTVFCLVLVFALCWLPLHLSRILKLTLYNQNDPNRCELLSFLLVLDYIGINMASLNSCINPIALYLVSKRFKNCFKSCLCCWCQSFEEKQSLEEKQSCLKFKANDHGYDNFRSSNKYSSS

SK^+Ca channel = SK^+Ca channel binding assay; design: species or system rat; details: 1.0E−05 M
NMDA = NMDA binding assay; design: species or system rat; details: 1.0E−05 M
P2X = P2X binding assay; design: species or system rat; details: 1.0E−05 M
A1(h) = target: T10, A1(h) (Homo sapiens, UniProt P30542); experiment: A1(h) binding assay; details: 1.0E−05 M; read-out: % Inhibition of Control Specific Binding
T10 construct: expressed in transfected cells; host or cells: CHO cells
T10 sequence (P30542 whole entry): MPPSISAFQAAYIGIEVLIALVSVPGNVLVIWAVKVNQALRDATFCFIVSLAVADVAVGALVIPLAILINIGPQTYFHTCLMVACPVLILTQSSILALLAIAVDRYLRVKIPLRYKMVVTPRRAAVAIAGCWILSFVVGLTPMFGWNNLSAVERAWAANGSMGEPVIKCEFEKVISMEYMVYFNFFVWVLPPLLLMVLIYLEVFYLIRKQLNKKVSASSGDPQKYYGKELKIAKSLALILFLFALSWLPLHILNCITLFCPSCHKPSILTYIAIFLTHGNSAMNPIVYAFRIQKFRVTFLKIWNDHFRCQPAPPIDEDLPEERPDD

[2] = tested on: colitis provoked by trinitrobenzene sulphonic acid (TNBS); experiment: Rat model of colitis provoked by TNBS, 3 days, treatment from Day −1 (CCI-7308); type: in vivo; details: vs CMC group
Source text: In the study, colonic macroscopic injury has been assessed, as has colonic weight as a reflection of colonic oedema, along with determination of MPO activity (Bradley et al, 1982) as an index of white cell infiltration for the evaluation of tissue injury. The methods and protocol used were substantially similar to those in Example 39, with some differences described below. TNBS Challenge—Male Wistar rats (270-330 g) were randomised into groups of 10-11 before commencement of the study. The following primary parameters were measured in the study: In addition, the weight of the colonic segment was assessed as an indirect and non-specific marker of oedema. The body weight of the animals was also determined and expressed as % change from the day of challenge. Treatments. All challenged groups were dosed orally twice daily from Day −1. The groups for study were: Colon homogenates for cytokine measurements. […] Tissue homogenates were lysed for 30 min. on ice, and then centrifuged (10 min., 14, 000×g). The aliquots of the supernatant were stored at −20° C. until use (Ten Hove et al., 2001). Tumour Necrosis Factor-a Activity. The TNF-α levels were determined with quantitative TNF-α solid-phase Enzyme Linked ImmunoSorbent Assay (ELISA), which is based on the sandwich principle (HyCult biotechnology b. V;. Cat number: […] At the end of the ELISA assay, the samples were measured spectrophotometrically (Benchmark Microplate reader, Bio-Rad Lab; λ=450 nm). The samples were diluted 2 or 4 times with the sample buffer included in the kit. The TNF-α values were expressed as pg/mg protein. This commercially available kit (Hycult Biotechnology b.v. Uden, The Netherlands. Catalogue number: […]

[3] = 50 mg/kg/day p.o. in divided doses

N#Cc1ccc2c(ccn2CCCCCB(O)O)c1 [Example 20, 5-(5-cyano-1H-indol-1-yl)pentylboronic acid]
inhibition at 10 µM (K^+ATP channel): 25% | inhibition at 10 µM (Choline transporter): 1% | inhibition at 10 µM (AT2(h)): 3% | % Inhibition of Control Values (Phosphodiesterase 3(h)): 95% | inhibition at 1 µM (hERG): 31.1% | Potency Ranking (HERG channel; HERG-channel blocker ranking, from 1 μM test (Table 17)): Moderate (Moderate, 1 μM<IC50<10 μM) | HERG-channel blocker potency class (HERG channel; general potency ranking system (Roche et al.)): moderate | inhibition at 10 µM (V1a(h)): 24% | % Inhibition of Control Values (Phosphodiesterase 4(h)): 91% | % Inhibition of Control Values [1]: −5% | inhibition at 10 µM (β1(h)): 7% | % Inhibition of Control Specific Binding (I1 (peripheral)): −6% | inhibition at 10 µM (ORL1(h) (NOP)): 0% | % Stimulation Relative to Control (Adenylyl cyclase (basal)): −3% | inhibition at 10 µM (DA transporter(h)): 47% | inhibition at 10 µM (B1(h)): -5% | inhibition at 10 µM (ETB(h)): 10% | % Inhibition of Control Specific Binding (SK^+Ca channel): −15% | % Inhibition of Control Specific Binding (NMDA): 19% | % Inhibition of Control Specific Binding (P2X): 14% | inhibition at 10 µM (A1(h)): 7%

O=C(O)c1cc(/N=N/c2ccc(S(=O)(=O)Nc3ccccn3)cc2)ccc1O [sulfasalazine, reference compound]
attenuation of TNBS-induced fall in body weight (% change in body weight at Day 0) ([2]; 50 mg/kg/day p.o. in divided doses b.i.d.): reached statistical significance at Day 1, 2 and 3 | reduction in area of macroscopic colonic injury ([2]; 50 mg/kg/day p.o. in divided doses, 72 h after TNBS): significantly (P<0.001) reduced the extent of macroscopic injury | reduction in colon weight [2, 3]: significant (P<0.05) reduction in colon weight | reduction in colonic MPO activity [2, 3]: significantly reduced the elevated colonic levels of MPO | reduction in colonic TNF-α levels [2, 3]: significantly reduced the elevated colonic levels of TNF-α
